Each structure is given as a SMILES string.

The subject of data set [1] is Primary Rat cortical astrocytes. Put plainly: Scratch wound assay, astrocytes. In kind it is cell-based. Conditions: from AUC of % wound confluence; for IC50: Rattus norvegicus, Astrocyte, inflexion point, read-out: Scratch Assay Astrocytes IP. Here is the method:
Primary Rat cortical astrocytes were purchased from Lonza (Walkersvelle Inc., MA, USA). Cells were plated in culture flasks at a density of 1.106-3.106 cells/ml, and maintained at 37° C. and 95% CO2/5% O2, in Astrocyte Growth Medium Bulletkit™ (Lonza Walkersville Inc., MA, USA). When astrocyte cultures reached confluence, cells were trypsinized and replated at 6.105 cells/ml onto 24 well ImageLock™ plate (Essen Instruments, MI, USA).
Scratch wound assays are commonly used to assess the effects of drugs and drug candidates on the cellular proliferation and/or migration associated with wound closing. The IncuCyte™ system (Essen Instruments, MI, USA), an automated imaging platform, provides ongoing, real-time images and quantitative data generated throughout the wound-closing process. Cells were maintained in 24 well ImageLock™ (Essen Instruments, MI, USA) at 37° C. and 95% CO2/5% O2, until a confluent monolayer was achieved. A single scratch wound was then created in each well using the Essen Woundmaker™ (Essen Instruments, MI, USA). It induced a mechanical scratch of the cell monolayer using plastic pipette tips (10-20 μl pipette tips, Eppendorff). Dead cells and other debris produced by the scratch were immediately washed with regular growth media. Cells were then treated with pharmacological agents and were placed into the IncuCyte™ at 37° C. and 95% CO2/5% O2, for two to three days. During this time, the wound area within each well was repeatedly imaged at fixed time intervals (every three hours). The IncuCyte™ scratch wound software generates a “wound mask” for each well. An initial wound mask is created for the first image (at time 0) that clearly delineates the border of the wound. A revised mask is generated for each subsequent image to track wound closure. Wound closure can be automatically monitored using the wound confluence (% confluence). Wound confluence can be graphed over time to evaluate the characteristics of wound closing in the presence of pharmacological agents.
The calculation of the area under the curve (AUC) of the % confluence function of the time gave a quantitative measurement of compounds efficacy on the scratch wound closing. Compounds were titrated in quadruplicate at 5 points concentration starting at 20 μM with a two-fold increment. The percentage of inhibition was calculated from the AUCs at each dose in comparison with the AUCs of the control wells (1% DMSO). Concentration-response curves were represented and the concentrations at the inflexion point (IP) were calculated. The maximum effect was given by the maximum percent inhibition.

Data set [2] shares this test system. As to the kind of experiment: Proliferation assay (cell confluence), astrocytes. In kind it is cell-based. The settings on record: at 5 μM. On the procedure:
C2Cl2 were plated at 15,000 cells per well and then differentiated into myotubes with DMEM supplemented with 2% horse serum for 3 days in 24 well ImageLock™ plate (Essen Instruments, MI, USA). Primary Rat cortical astrocytes were plated at 3.105 cells/ml onto 24 well ImageLock™ plate.
Cells were placed into the IncuCyte™ at 37° C. and 95% CO2/5% O2, for two to three days. During this time, the cells within each well were repeatedly imaged at fixed time intervals (every three hours). The IncuCyte™ system automatically monitored the proliferation using the percentage of confluence. Percent of confluence can be graphed over time to evaluate the characteristics of proliferation in the presence of pharmacological agents.
Compounds were tested at 5 μM in quadruplicate. The percentage of reduction of cell confluence was calculated from the AUCs in comparison with the AUCs of the control wells (1% DMSO).

Data set [3] relates to C2C12 cells. As to the kind of experiment: Toxicity (percent of cell death), C2C12 cells. It is filed as cell-based. The settings on record: 20 μM. On the procedure:
EphA4 kinase inhibition is assessed by both an enzymatic assay measuring the phosphorylation of a purified recombinant EphA4 kinase and a cell-based assay using the activation of pGas-Luciferase system in EphA4-transfected CHO-K1 cells. The functional effects of EphA4 RTK inhibitors on cell motility and proliferation is evaluated by the scratch wound assay. The effect of EphA4 RTK inhibitors is also directly measured on the cell confluence. The counterscreen assays (cell counterscreen, Src, Jak2 and P38α kinase) identified other potential inhibitory activities of compounds unrelated to EphA4 kinase. The toxicity is measured by the percent of cell death in the different cell assays. Values represent IC50 and IP in μM calculated from the dose-response curves. Values in parentheses give the maximum percent inhibition.

Data set [4] addresses T1, P38alpha kinase (Homo sapiens, UniProt Q16539).
T1 construct: purchased Dundee Library
Put plainly: P38 alpha kinase counterscreen assay (Caliper mobility shift). It is filed as biochemical. On the procedure: A counterscreen assay was performed to measure p38alpha kinase activity using the Caliper System (LifeSciences, USA). This system is based on the microfluidic technology. P38 alpha kinase activity was measured by the shift in mobility of the non-phosphorylated form when separated by electrophoresis and detected via LED (Light Emitting Diode) induced fluorescence. This assay was automated following the manufacturer's protocol. P38alpha kinase and its substrate GST-MK2 were bought from Dundee Library.
Compounds were titrated, concentration-response curves were represented and the concentrations for 50% inhibition (IC50) were calculated.
Background: A counterscreen serves to expose hits that act by an unwanted route or on another target.

For data set [5], the target named is T2, P60c-src (Homo sapiens, UniProt P12931).
T2 construct: purchased Upstate biotechnology, USA
As to the kind of experiment: Src kinase counterscreen enzymatic assay (TR-FRET). It is filed as biochemical. The settings on record: 0.5 μM ATP. On the procedure:
Counterscreen assays were developed for the tyrosine kinases src kinase and Jak2 kinase, with a format essentially identical to the EphA4 kinase TR-FRET format. Jak2 (50 ng) (Cell Signaling, USA) was incubated with 0.5 μM of biotinylated FLT3 peptide (Cell Signaling, USA) in presence of 5 μM of ATP (Sigma). P60c-src (10 U/well) (Upstate biotechnology, USA) was incubated with biotinylated Poly(Glu Tyr) peptide (100 nM) in presence of 0.5 μM of ATP. The enzymatic reaction was stopped after 60 min by adding 15 mM EDTA. The detection reaction and energy transfer signal measurements were similar to those previously described. Results were expressed as ratios of the absorbencies 665/615.
Compounds were titrated in duplicate at 11 points concentration starting at 100 μM with a 3 fold increment. Compounds were diluted in DMSO. […] Percentage inhibition for each compound was then calculated based on the value of the 100% inhibition. Concentration-response curves were represented and the concentrations for 50% inhibition (IC50) were calculated.

T1 sequence (Q16539 whole entry): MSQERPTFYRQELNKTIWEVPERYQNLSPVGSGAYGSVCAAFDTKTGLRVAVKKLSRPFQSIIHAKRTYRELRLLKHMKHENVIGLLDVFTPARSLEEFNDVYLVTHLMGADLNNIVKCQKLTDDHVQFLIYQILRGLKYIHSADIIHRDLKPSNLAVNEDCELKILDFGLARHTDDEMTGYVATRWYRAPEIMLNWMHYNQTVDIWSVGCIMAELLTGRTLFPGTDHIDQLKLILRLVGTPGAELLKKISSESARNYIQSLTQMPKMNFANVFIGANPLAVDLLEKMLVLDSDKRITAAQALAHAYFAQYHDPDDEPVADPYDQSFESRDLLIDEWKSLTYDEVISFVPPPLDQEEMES
T2 sequence (P12931 whole entry): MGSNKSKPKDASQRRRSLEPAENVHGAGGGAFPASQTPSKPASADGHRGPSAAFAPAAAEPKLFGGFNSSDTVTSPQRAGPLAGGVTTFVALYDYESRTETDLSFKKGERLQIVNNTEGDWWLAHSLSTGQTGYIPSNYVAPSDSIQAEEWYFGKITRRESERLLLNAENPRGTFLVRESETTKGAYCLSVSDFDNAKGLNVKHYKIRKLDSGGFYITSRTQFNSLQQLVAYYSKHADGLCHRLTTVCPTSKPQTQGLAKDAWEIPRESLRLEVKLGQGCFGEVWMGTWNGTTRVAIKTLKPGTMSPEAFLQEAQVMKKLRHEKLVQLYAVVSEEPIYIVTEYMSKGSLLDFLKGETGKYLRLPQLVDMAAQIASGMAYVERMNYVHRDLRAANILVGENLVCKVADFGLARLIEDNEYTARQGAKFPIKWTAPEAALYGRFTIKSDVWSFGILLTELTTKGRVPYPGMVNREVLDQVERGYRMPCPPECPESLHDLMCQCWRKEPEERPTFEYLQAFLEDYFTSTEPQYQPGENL

As for `Cc1ccccc1-c1nc2[nH]nc(N)c2c2c1CCC(C)(C)C2` [Example 67], the IC50 stood at 1.4 µM in data set [1], 3.7 µM in data set [4] and 0.3 µM in data set [5]. Moreover, in data set [1], the “Scratch Assay Astrocytes max inhibition in %” value is listed as 66%. Also, in data set [2], the “% Reduction of Confluence Astrocytes” value was found to be 29.1% at 5 μM. Moreover, in data set [3], the “Max Toxicity C2C12 in cells % of cell death” value stood at 10%.
`CC1CCc2c(-c3ccccc3Cl)nc3[nH]nc(N)c3c2C1` (stereo not drawn) [Example 63]: the IC50 in data set [1] amounted to 49 µM; in data set [4], 7.3 µM; in data set [5] it was 8.3 µM. For the same molecule, in data set [1], the “Scratch Assay Astrocytes max inhibition in %” value is given as 33%. For the same molecule, the “% Reduction of Confluence Astrocytes” value in data set [2] stood at 14.8% at 5 μM. The “Max Toxicity C2C12 in cells % of cell death” value in data set [3] is recorded as 3%.
